Assay results from publication PMC7582192, “Targeting N-myristoylation for therapy of B-cell lymphomas” (Nature Communications, 2020).

Target: T1, Lyn (Homo sapiens, UniProt P07948)
T1 construct: endogenous Lyn in BL2 cells
Assay: western blot of P-Lyn (Y396) in anti-IgM stimulated BL2 cells, […] for […] h
Type: cell-based

T1 sequence (P07948 2-512): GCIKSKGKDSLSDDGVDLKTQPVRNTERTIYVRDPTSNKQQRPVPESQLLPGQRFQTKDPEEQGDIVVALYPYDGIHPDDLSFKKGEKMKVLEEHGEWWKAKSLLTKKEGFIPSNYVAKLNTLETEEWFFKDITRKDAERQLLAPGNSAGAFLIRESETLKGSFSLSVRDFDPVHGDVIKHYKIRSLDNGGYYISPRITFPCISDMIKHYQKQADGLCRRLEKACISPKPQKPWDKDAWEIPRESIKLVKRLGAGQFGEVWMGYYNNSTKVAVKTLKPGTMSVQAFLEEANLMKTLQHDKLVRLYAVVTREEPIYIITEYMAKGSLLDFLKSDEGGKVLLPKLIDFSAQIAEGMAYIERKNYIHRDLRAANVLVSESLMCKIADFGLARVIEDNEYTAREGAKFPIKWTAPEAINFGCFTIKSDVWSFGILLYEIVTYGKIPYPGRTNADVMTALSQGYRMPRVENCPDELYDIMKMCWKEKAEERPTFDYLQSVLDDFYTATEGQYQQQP

## Cc1nc(Nc2ncc(C(=O)Nc3c(C)cccc3Cl)s2)cc(N2CCN(CCO)CC2)n1 [dasatinib]
  western blot of P-Lyn (Y396) in anti-IgM stimulated BL2 cells, 0.1 or 1.0 μM for: Dasatinib and ibrutinib selectively inhibited their respective targets as measured using anti-P-Lyn, anti-P-SFKs, and anti-P-BTK antibodies
